Source: ChEMBL document CHEMBL1136083, “Potent Grb2-SH2 domain antagonists not relying on phosphotyrosine mimics” (Bioorg Med Chem Lett, 2003)
*1 amine or outer side, *2 acyl side, *3 side chain or, on linkers, in order; H or OH if unused. Where a SMILES comes first, the peptide text is derived from it. Bridges are numbered along the chain shown (N, C = ends). [ ]: non-standard residue; d: D form. Gla = N[C@@H](CC(C(=O)O)C(=O)O)C(=O)O; X1 = O=C([C@]1(N[*:1])CC2CCC1C2)[*:2]

target: T1, Growth factor receptor-bound protein 2 (Homo sapiens, UniProt P62993); assay: Binding affinity against Growth factor receptor bound protein 2 using ELISA assay
T1 sequence (P62993 whole entry): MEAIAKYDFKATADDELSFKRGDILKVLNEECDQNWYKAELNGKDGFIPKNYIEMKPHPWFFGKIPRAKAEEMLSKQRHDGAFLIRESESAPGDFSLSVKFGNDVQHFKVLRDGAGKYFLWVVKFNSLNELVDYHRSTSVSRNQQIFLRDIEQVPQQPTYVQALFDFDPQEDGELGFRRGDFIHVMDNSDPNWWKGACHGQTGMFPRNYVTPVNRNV

Structure (SMILES)	IC50
CSCC[C@H]1NC(=O)CNC(=O)[C@@H](C(C)C)NC(=O)[C@H](CC(N)=O)NC(=O)[C@@H](CCC(=O)O)NC(=O)[C@H](Cc2ccc(O)cc2)NC(=O)[C@@H](CC(C)C)NC(=O)[C@H](CC(C(=O)O)C(=O)O)NC(=O)CSC[C@@H](C(N)=O)NC(=O)[C@H](Cc2ccc(O)cc2)NC1=O	991 nM
CC(C)C[C@H]1NC(=O)[C@H](CC(C(=O)O)C(=O)O)NC(=O)CSC[C@@H](C(N)=O)NC(=O)[C@H](Cc2ccc(O)cc2)NC(=O)[C@@H](Cc2ccc(-c3ccccc3)cc2)NC(=O)CNC(=O)[C@@H](C(C)C)NC(=O)[C@H](CC(N)=O)NC(=O)C2(CCCCC2)NC(=O)[C@H](Cc2ccc(O)cc2)NC1=O	502 nM
CSCC[C@H]1NC(=O)CNC(=O)[C@@H](C(C)C)NC(=O)[C@H](CC(N)=O)NC(=O)[C@@H](CCCC(=O)O)NC(=O)[C@H](Cc2ccc(O)cc2)NC(=O)[C@@H](CC(C)C)NC(=O)[C@H](CC(C(=O)O)C(=O)O)NC(=O)CSC[C@@H](C(N)=O)NC(=O)[C@H](Cc2ccc(O)cc2)NC1=O	1510 nM
CSCC[C@H]1NC(=O)CNC(=O)[C@@H](C(C)C)NC(=O)[C@H](CC(N)=O)NC(=O)C2(CCCCC2)NC(=O)[C@H](Cc2ccc(O)cc2)NC(=O)[C@@H](CC(C)C)NC(=O)[C@H](CC(C(=O)O)C(=O)O)NC(=O)CSC[C@@H](C(N)=O)NC(=O)[C@H](Cc2ccc(O)cc2)NC1=O	525 nM
CC(C)C[C@H]1NC(=O)[C@H](CC(C(=O)O)C(=O)O)NC(=O)CSC[C@@H](C(N)=O)NC(=O)[C@H](Cc2ccc(O)cc2)NC(=O)[C@@H](Cc2ccc3ccccc3c2)NC(=O)CNC(=O)[C@@H](C(C)C)NC(=O)[C@H](CC(N)=O)NC(=O)C2(CCCCC2)NC(=O)[C@H](Cc2ccc(O)cc2)NC1=O	271 nM
CC(C)C[C@H]1NC(=O)[C@H](CC(C(=O)O)C(=O)O)NC(=O)CSC[C@@H](C(N)=O)NC(=O)[C@H](Cc2ccc(O)cc2)NC(=O)[C@@H](Cc2c(F)c(F)c(F)c(F)c2F)NC(=O)CNC(=O)[C@@H](C(C)C)NC(=O)[C@H](CC(N)=O)NC(=O)C2(CCCCC2)NC(=O)[C@H](Cc2ccc(O)cc2)NC1=O	238 nM
CC(C)C[C@H]1NC(=O)[C@H](CC(C(=O)O)C(=O)O)NC(=O)CSC[C@@H](C(N)=O)NC(=O)[C@H](Cc2ccc(O)cc2)NC(=O)[C@@H](CC(C)(C)C)NC(=O)CNC(=O)[C@@H](C(C)C)NC(=O)[C@H](CC(N)=O)NC(=O)C2(CCCCC2)NC(=O)[C@H](Cc2ccc(O)cc2)NC1=O	244 nM
CSCC[C@@H]1NC(=O)CNC(=O)[C@H](C(C)C)NC(=O)[C@H](CC(N)=O)NC(=O)[C@H](CCC(=O)O)NC(=O)[C@H](Cc2ccc(O)cc2)NC(=O)[C@H](CC(C)C)NC(=O)[C@H](CCC(=O)O)NC(=O)CSC[C@@H](C(N)=O)NC(=O)[C@H](Cc2ccc(O)cc2)NC1=O (HELM PEPTIDE1{[O=C(C[*:3])[*:2]].E.L.Y.E.N.V.G.M.Y.C.[am]}$PEPTIDE1,PEPTIDE1,1:R3-11:R3$$$V2.0)	> 100000 nM
CSCC[C@@H]1NC(=O)CNC(=O)[C@H](C(C)C)NC(=O)[C@H](CC(N)=O)NC(=O)[C@@H]2CCCN2C(=O)[C@H](Cc2ccc(O)cc2)NC(=O)[C@H](CC(C)C)NC(=O)[C@H](CCC(=O)O)NC(=O)CSC[C@@H](C(N)=O)NC(=O)[C@H](Cc2ccc(O)cc2)NC1=O (HELM PEPTIDE1{[O=C(C[*:3])[*:2]].E.L.Y.P.N.V.G.M.Y.C.[am]}$PEPTIDE1,PEPTIDE1,1:R3-11:R3$$$V2.0)	7830 nM
CC(C)C[C@H]1NC(=O)[C@H](CC(C(=O)O)C(=O)O)NC(=O)C[S+]([O-])C[C@@H](C(N)=O)NC(=O)[C@H](Cc2ccc(O)cc2)NC(=O)[C@@H](CC(C)(C)C)NC(=O)CNC(=O)[C@@H](C(C)C)NC(=O)[C@H](CC(N)=O)NC(=O)C2(CCCCC2)NC(=O)[C@H](Cc2ccc(O)cc2)NC1=O (stereo in doubt; 12)	74.6 nM
CC(C)C[C@H]1NC(=O)[C@H](CC(C(=O)O)C(=O)O)NC(=O)C[S+]([O-])C[C@@H](C(N)=O)NC(=O)[C@H](Cc2ccc(O)cc2)NC(=O)[C@@H](CC(C)(C)C)NC(=O)CNC(=O)[C@@H](C(C)C)NC(=O)[C@H](CC(N)=O)NC(=O)C2(CCCCC2)NC(=O)[C@H](Cc2ccc(O)cc2)NC1=O (stereo in doubt; 13)	747 nM
CC(C)C[C@H]1NC(=O)[C@H](CC(C(=O)O)C(=O)O)NC(=O)C[S+]([O-])C[C@@H](C(N)=O)NC(=O)[C@H](Cc2ccc(O)cc2)NC(=O)[C@@H](Cc2ccc3ccccc3c2)NC(=O)CNC(=O)[C@@H](C(C)C)NC(=O)[C@H](CC(N)=O)NC(=O)C2(CCCCC2)NC(=O)[C@H](Cc2ccc(O)cc2)NC1=O (stereo in doubt; 14)	314 nM
CC(C)C[C@H]1NC(=O)[C@H](CC(C(=O)O)C(=O)O)NC(=O)C[S+]([O-])C[C@@H](C(N)=O)NC(=O)[C@H](Cc2ccc(O)cc2)NC(=O)[C@@H](Cc2ccc3ccccc3c2)NC(=O)CNC(=O)[C@@H](C(C)C)NC(=O)[C@H](CC(N)=O)NC(=O)C2(CCCCC2)NC(=O)[C@H](Cc2ccc(O)cc2)NC1=O (stereo in doubt; 15)	4860 nM
CC(C)C[C@H]1NC(=O)[C@H](CC(C(=O)O)C(=O)O)NC(=O)C[S+]([O-])C[C@@H](C(N)=O)NC(=O)[C@H](Cc2ccc(O)cc2)NC(=O)[C@@H](C2CCCCC2)NC(=O)CNC(=O)[C@@H](C(C)C)NC(=O)[C@H](CC(N)=O)NC(=O)C2(CCCCC2)NC(=O)[C@H](Cc2ccc(O)cc2)NC1=O (stereo in doubt; 16)	149 nM
CC(C)C[C@H]1NC(=O)[C@H](CC(C(=O)O)C(=O)O)NC(=O)C[S+]([O-])C[C@@H](C(N)=O)NC(=O)[C@H](Cc2ccc(O)cc2)NC(=O)[C@@H](C2CCCCC2)NC(=O)CNC(=O)[C@@H](C(C)C)NC(=O)[C@H](CC(N)=O)NC(=O)C2(CCCCC2)NC(=O)[C@H](Cc2ccc(O)cc2)NC1=O (stereo in doubt; 17)	1410 nM
CSCC[C@@H]1NC(=O)CNC(=O)[C@H](C(C)C)NC(=O)[C@H](CC(N)=O)NC(=O)[C@@]2(CC3CCC2C3)NC(=O)[C@H](Cc2ccc(O)cc2)NC(=O)[C@H](CC(C)C)NC(=O)[C@H](CC(C(=O)O)C(=O)O)NC(=O)CSC[C@@H](C(N)=O)NC(=O)[C@H](Cc2ccc(O)cc2)NC1=O (some centres not stated) ({CH2CO}-[Gla]LY[X1]NVGMYC-NH2; thioether N-10)	730 nM

target: T1, Growth factor receptor-bound protein 2; assay: Inhibitory activity against Growth factor receptor bound protein 2 using ELISA assay

Structure (SMILES)	IC50
CSCC[C@@H]1NC(=O)CNC(=O)[C@H](C(C)C)NC(=O)[C@H](CC(N)=O)NC(=O)[C@H](CCC(=O)O)NC(=O)[C@H](Cc2ccc(O)cc2)NC(=O)[C@H](CC(C)C)NC(=O)[C@H](CCC(=O)O)NC(=O)CSC[C@@H](C(N)=O)NC(=O)[C@H](Cc2ccc(O)cc2)NC1=O (HELM PEPTIDE1{[O=C(C[*:3])[*:2]].E.L.Y.E.N.V.G.M.Y.C.[am]}$PEPTIDE1,PEPTIDE1,1:R3-11:R3$$$V2.0)	20000 nM
